# Source: publication PMC1851987, “Identification of the Endogenous Key Substrates of the Human Organic Cation Transporter OCT2 and Their Implication in Function of Dopaminergic Neurons” (PLoS ONE, 2007)
# Positions count from the first letter of the chain named. Numbers in names are those of the source. Marks after values point to notes of the source that are not given here.
# T1: organic cation transporter OCT2 (wild-type 400R) (Homo sapiens, UniProt O15244, S270A)
# T1 sequence (O15244 1-555 S270A): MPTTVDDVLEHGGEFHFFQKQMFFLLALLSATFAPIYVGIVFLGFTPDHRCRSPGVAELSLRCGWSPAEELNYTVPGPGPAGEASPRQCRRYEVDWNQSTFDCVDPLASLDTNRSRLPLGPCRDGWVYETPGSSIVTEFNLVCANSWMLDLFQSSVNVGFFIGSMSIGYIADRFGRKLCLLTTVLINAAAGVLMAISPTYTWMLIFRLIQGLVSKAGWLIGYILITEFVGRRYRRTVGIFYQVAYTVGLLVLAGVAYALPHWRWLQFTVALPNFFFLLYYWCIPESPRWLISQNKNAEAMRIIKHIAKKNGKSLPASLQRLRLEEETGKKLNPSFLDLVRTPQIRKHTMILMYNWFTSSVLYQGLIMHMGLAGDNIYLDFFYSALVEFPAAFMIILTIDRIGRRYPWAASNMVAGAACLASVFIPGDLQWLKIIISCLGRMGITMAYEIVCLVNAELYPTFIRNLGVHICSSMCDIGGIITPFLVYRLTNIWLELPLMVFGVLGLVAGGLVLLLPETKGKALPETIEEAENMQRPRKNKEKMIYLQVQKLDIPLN
# B1: EMT (Homo sapiens) (protein)
# chain: MPSFDEALQRVGEFGRFQRRVFLLLCLTGVTFAFLFVGVVFLGTQPDHYWCRGPSAAALAERCGWSPEEEWNRTAPASRGPEPPERRGRCQRYLLEAANDSASATSALSCADPLAAFPNRSAPLVPCRGGWRYAQAHSTIVSEFDLVCVNAWMLDLTQAILNLGFLTGAFTLGYAADRYGRIVIYLLSCLGVGVTGVVVAFAPNFPVFVIFRFLQGVFGKGTWMTCYVIVTEIVGSKQRRIVGIVIQMFFTLGIIILPGIAYFIPNWQGIQLAITLPSFLFLLYYWVVPESPRWLITRKKGDKALQILRRIAKCNGKYLSSNYSEITVTDEEVSNPSFLDLVRTPQMRKCTLILMFAWFTSAVVYQGLVMRLGIIGGNLYIDFFISGVVELPGALLILLTIERLGRRLPFAASNIVAGVACLVTAFLPEGIAWLRTTVATLGRLGITMAFEIVYLVNSELYPTTLRNFGVSLCSGLCDFGGIIAPFLLFRLAAVWLELPLIIFGILASICGGLVMLLPETKGIALPETVDDVEKLGSPHSCKCGRNKKTPVSRSHL
# notes: The cDNAs encoding the organic cation transporters; expressed in transfected cells; host or cells: HEK-293, stably transfected, pcDNA3
# B2: organic cation transporter OCT2 (wild-type 400R) (Homo sapiens; S270A) (protein)
# chain: T1 sequence (O15244 1-555 S270A)
# B3: OCT2 variant A270S (Homo sapiens) (protein)
# chain: T1 sequence (O15244 1-555 S270A) with A270S
# B4: OCT2 variant M165I (Homo sapiens; M165I/S270A) (protein)
# chain: T1 sequence (O15244 1-555 S270A) with M165I
# B5: OCT2 variant R400C (Homo sapiens; R400C/S270A) (protein)
# chain: T1 sequence (O15244 1-555 S270A) with R400C
# B6: OCT2 variant K432Q (Homo sapiens; K432Q/S270A) (protein)
# chain: T1 sequence (O15244 1-555 S270A) with K432Q
# B7: OCT1 (Homo sapiens) (protein)
# chain: MPTVDDILEQVGESGWFQKQAFLILCLLSAAFAPICVGIVFLGFTPDHHCQSPGVAELSQRCGWSPAEELNYTVPGLGPAGEAFLGQCRRYEVDWNQSALSCVDPLASLATNRSHLPLGPCQDGWVYDTPGSSIVTEFNLVCADSWKLDLFQSCLNAGFLFGSLGVGYFADRFGRKLCLLGTVLVNAVSGVLMAFSPNYMSMLLFRLLQGLVSKGNWMAGYTLITEFVGSGSRRTVAIMYQMAFTVGLVALTGLAYALPHWRWLQLAVSLPTFLFLLYYWCVPESPRWLLSQKRNTEAIKIMDHIAQKNGKLPPADLKMLSLEEDVTEKLSPSFADLFRTPRLRKRTFILMYLWFTDSVLYQGLILHMGATSGNLYLDFLYSALVEIPGAFIALITIDRVGRIYPMAMSNLLAGAACLVMIFISPDLHWLNIIIMCVGRMGITIAIQMICLVNAELYPTFVRNLGVMVCSSLCDIGGIITPFIVFRLREVWQALPLILFAVLGLLAAGVTLLLPETKGVALPETMKDAENLGRKAKPKENTIYLKVQTSEPSGT
# notes: as for B1
# Tests used:
# SH-SY5Y cells [1] = test: MTT reduction cell viability assay, SH-SY5Y cells; type: cell-based, human
# Protocol: (§1) Cell viability was assessed in HEK-293 cells, human dopaminergic neuroblastoma cells (SH-SY5Y) and human glioblastoma cells (HTZ-146) by the MTT test as described.[22] […] For indication of metabolic activity, cells were treated with MTT reagent (15 µl of 1 mg/ml stock solution per well) for 1 h, and after drying of culture plates for 1 h at 37°C, the resulting formazan dye was extracted with isopropanol/HCl (100 µl 0.04 mol/l per well) and absorbance was determined spectrophotometrically at 568 nm. Results were in agreement with the data obtained by the tryptan blue exclusion method (data not shown).
# HTZ-146 cells [2] = test: MTT reduction cell viability assay, HTZ-146 cells; type: cell-based, human
# Protocol: as §1
# SH-SY5Y cells [3] = test: Uptake of cyclo(his-pro) and salsolinol into SH-SY5Y cells with transport inhibitors; type: cell-based, human; details: substrates 10 µmol/l, 5 min; inhibitors 10 µmol/l (decynium-22 1 µmol/l)
# Protocol: (§2) (D) Relative quantitative real-time expression of OCT2 mRNA in distinct areas of normal human brain and neuroepithelial tumors (TaqMan Assay) normalized to GAPDH.
# (§3) For uptake experiments, cells were grown on polystyrene dishes of 60 mm diameter to at least 80% confluence. Prior to addition of test compounds, culture medium was replaced by 3 ml HEPES-modified Krebs buffer (140.0 mmol/l NaCl, 5.0 mmol/l KCl, 2.0 mmol/l CaCl2, 1.0 mmol/l MgCl2, 10.0 mmol/l HEPES, and 5.0 mmol/l D-glucose, adjusted to pH 7.40), and cells were left to equilibrate for 60 min at 37°C. Uptake was terminated after indicated times by washing cells with ice-cold buffer. Cells were lysed with 1 ml of 4 mmol/l perchloric acid and lysates subjected to LC-MS-MS quantification. Cellular protein content was determined after solubilization of perchloric acid precipitates with 1 ml of […] NaOH using the bicinchoninic assay (BCA Protein Assay Kit, Pierce).
# (§4) Chromatographic separations were performed on Hypercarb (5 µm, 50×2.1 mm; Thermo Electron), Aquasil C18 (3 µm, 100×4.6 mm; Thermo Electron), or Hilic columns (5 µm, 100×3.0 mm; Waters Atlantis) by isocratic or gradient elution using 0.1% aqueous formic acid (A) and acetonitrile or methanol (B) as solvent system. For quantification, SRM transitions of a precursor ion [M+H]^+ into a specific fragment ion (peak area ratios relative to IS) were recorded in positive ESI mode at 1.0–1.5 mTorr collision pressure and 10–40 eV collision energy. External calibration curves were obtained from serial dilutions of the analyte in 4 mmol/l HClO4 by linear or logistic regression. Detection limit was at least 0.001 nmol/mg protein.
# HTZ-146 cells [4] = test: Uptake of cyclo(his-pro) and salsolinol into HTZ-146 cells with transport inhibitors; type: cell-based, human; details: substrates 10 µmol/l, 5 min; inhibitors 10 µmol/l (decynium-22 1 µmol/l)
# Protocol: as §2, §3, §4
# HTZ-146 cells [5] = test: Intracellular metabolite N-methyl-salsolinol after salsolinol incubation, HTZ-146 cells; type: in vitro ADME, human; details: mean±s.e.m., n = 3
# Source text: (§5) Beyond its physiological neuromodulatory function, there is considerable interest in the pathophysiologic role of salsolinol. […] It has been hypothesized that especially N-methyl-salsolinol is etiologically involved in apoptotic nigral cell death in PD by promoting calcium-triggered disruption of mitochondrial permeability transition.[14]
# SH-SY5Y cells [6] = test: Intracellular metabolite N-methyl-salsolinol after salsolinol incubation, SH-SY5Y cells; type: in vitro ADME, human; details: mean±s.e.m., n = 3
# Source text: as §5
# [7] = tested on: OCT2-transfected HEK-293 cells; test: Intracellular metabolite N-methyl-salsolinol after salsolinol incubation, OCT2-transfected HEK-293 cells; type: in vitro ADME, human; details: mean±s.e.m., n = 3
# [8] = target: T1, organic cation transporter OCT2 (wild-type 400R); test: Specific uptake into OCT2 (wild-type) transfected HEK-293 cells vs empty vector, LC-MS-MS; details: 5 min of incubation with 10 µmol/l
# [9] = target: T2, norepinephrine transporter (NET) (Homo sapiens, UniProt P23975); test: Specific uptake into norepinephrine transporter (NET) transfected HEK-293 cells; type: cell-based; details: 10 µmol/l, 5 min incubation
# T2 construct: expressed in transfected cells; host or cells: HEK-293, stably transfected; cDNA from C; Pifl (University of Vienna)
# T2 sequence (P23975 whole entry): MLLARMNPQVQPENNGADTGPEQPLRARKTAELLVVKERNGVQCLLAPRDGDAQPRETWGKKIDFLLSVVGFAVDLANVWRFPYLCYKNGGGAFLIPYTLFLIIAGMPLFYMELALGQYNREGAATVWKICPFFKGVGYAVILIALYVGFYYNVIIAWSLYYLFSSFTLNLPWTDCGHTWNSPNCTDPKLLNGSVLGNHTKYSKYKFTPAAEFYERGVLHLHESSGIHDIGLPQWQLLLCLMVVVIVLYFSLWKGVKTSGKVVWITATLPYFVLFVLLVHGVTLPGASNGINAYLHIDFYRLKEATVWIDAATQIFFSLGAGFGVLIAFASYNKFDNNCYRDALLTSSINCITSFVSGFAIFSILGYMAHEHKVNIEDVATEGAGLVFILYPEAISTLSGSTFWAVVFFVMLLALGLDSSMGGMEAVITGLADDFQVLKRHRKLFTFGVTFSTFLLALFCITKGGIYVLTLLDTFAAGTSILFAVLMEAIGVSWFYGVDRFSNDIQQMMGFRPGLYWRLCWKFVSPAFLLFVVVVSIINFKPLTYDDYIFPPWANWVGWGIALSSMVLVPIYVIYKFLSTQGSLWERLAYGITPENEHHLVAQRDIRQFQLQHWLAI
# Source text: Pifl (University of Vienna).
# 1. Burnette WB, Bailey MD, Kukoyi S, Blakely RD, Trowbridge CG, et al. (1996) Human norepinephrine transporter kinetics using rotating disk electrode voltammetry. Anal Chem 68: 2932–2938. (0.90 MB TIF) Click here for additional data file.
# [10] = target: T1, organic cation transporter OCT2 (wild-type 400R); details: cited from earlier work
# [11] = substrate: O=C1NC(Cc2c[nH]cn2)C(=O)N2CCCC12; test: Specific uptake into EMT-transfected HEK-293 cells; type: cell-based, human; details: other: specific uptake, 1 min of loading, mean (s.e.m.); pH 7.4; 37.0 °C
# [12] = substrate: O=C1NC(Cc2c[nH]cn2)C(=O)N2CCCC12; test: cells, lysate or membranes; details: mean (s.e.m.), pH 7.4, 37.0 °C
# [13] = substrate: O=C1NC(Cc2c[nH]cn2)C(=O)N2CCCC12; test: Specific uptake into OCT1-transfected HEK-293 cells; type: cell-based, human; details: other: specific uptake, 1 min of loading, mean (s.e.m.); pH 7.4; 37.0 °C
# [14] = 48 h, non-pretreated, read-out: EC50 (95% confidence interval), cell viability
# [15] = 48 h incubation with 10 µmol/l salsolinol
# [16] = 48 h incubation with 100 µmol/l salsolinol
# [17] = other: specific uptake, 1 min of loading, n = 3
molecule,measurement,setting,value
"N[C@@H](CCC(=O)O)C(=O)O [glutamate, reference compound]",EC50,SH-SY5Y cells [1]; [14],389 µM
same,EC50,HTZ-146 cells [2]; [14],585 µM
Fc1ccc(C(OCCN2CCN(CCCc3ccccc3)CC2)c2ccc(F)cc2)cc1 [GBR12909],effect of coincubated inhibitor on uptake of cyclo(his-pro) and salsolinol,SH-SY5Y cells [3],not different from control conditions
same,effect of coincubated inhibitor on uptake of cyclo(his-pro) and salsolinol,HTZ-146 cells [4],not different from control conditions
CC(COc1ccccc1)N(CCCl)Cc1ccccc1 (stereo not shown) [phenoxybenzamine],effect of coincubated inhibitor on uptake of cyclo(his-pro) and salsolinol,SH-SY5Y cells [3],almost abolished
same,effect of coincubated inhibitor on uptake of cyclo(his-pro) and salsolinol,HTZ-146 cells [4],almost abolished
CC1c2cc(O)c(O)cc2CCN1C (stereo not shown) [N-methyl-salsolinol],intracellular concentration of the metabolite N-methyl-salsolinol,HTZ-146 cells [5]; [15],0.17±0.01 nmol/mg protein
same,intracellular concentration of the metabolite N-methyl-salsolinol,HTZ-146 cells [5]; [16],1.16±0.06 nmol/mg protein
same,intracellular concentration of the metabolite N-methyl-salsolinol,SH-SY5Y cells [6]; [15],0.18±0.01 nmol/mg protein
same,intracellular concentration of the metabolite N-methyl-salsolinol,SH-SY5Y cells [6]; [16],1.28±0.11 nmol/mg protein
same,intracellular concentration of the metabolite N-methyl-salsolinol,[7]; [15],0.89±0.06 nmol/mg protein
same,intracellular concentration of the metabolite N-methyl-salsolinol,[7]; [16],7.56±0.41 nmol/mg protein
same,uptake rate relative to salsolinol,[8],about two-thirds
CCN1/C(=C/c2ccc3ccccc3[n+]2CC)C=Cc2ccccc21.[I-] [decynium-22],effect of coincubated inhibitor on uptake of cyclo(his-pro) and salsolinol,SH-SY5Y cells [3],almost abolished
same,effect of coincubated inhibitor on uptake of cyclo(his-pro) and salsolinol,HTZ-146 cells [4],almost abolished
"NCCc1ccc(O)cc1 [tyramine, reference compound]",substrate of NET (specific uptake),[9],excellent NET substrate
CNCCCN1c2ccccc2CCc2ccccc21 [desipramine],effect of coincubated inhibitor on uptake of cyclo(his-pro) and salsolinol,SH-SY5Y cells [3],not different from control conditions
same,effect of coincubated inhibitor on uptake of cyclo(his-pro) and salsolinol,HTZ-146 cells [4],not different from control conditions
"C[C@]12N[C@H](Cc3ccccc31)c1ccccc12 [(+)-MK-801, reference compound]",effect on cell death caused by glutamate as well as salsolinol,SH-SY5Y cells [1]; (+)-MK-801 10 µmol/l present,attenuated
same,effect on cell death caused by glutamate as well as salsolinol,HTZ-146 cells [2]; (+)-MK-801 10 µmol/l present,attenuated
NCCc1ccc(O)c(O)c1 [dopamine],OCT2-mediated transport,[10],no significant OCT2-mediated transport
B1,Km,[11],126 (38) μmol/l
B2,Km,[12]; [17],74 (12) µmol/l
same,Vmax,[12]; [17],0.003 µmol/min/mg
same,Vmax/Km,[12]; [17],41 µl/mg protein/min
B3,Km,[12]; other: 1 min of loading,75 (11) µmol/l
same,Vmax,[12]; other: 1 min of loading,0.0032 µmol/min/mg
B4,Km,[12]; other: 1 min of loading,78 (15) µmol/l
same,Vmax,[12]; other: 1 min of loading,0.0029 µmol/min/mg
B5,Km,[12]; other: 1 min of loading,51 (6)^# µmol/l
same,Vmax,[12]; other: 1 min of loading,0.001 µmol/min/mg
B6,Km,[12]; other: 1 min of loading,78 (12) µmol/l
same,Vmax,[12]; other: 1 min of loading,0.0031 µmol/min/mg
B7,Km,[13],655 (191) μmol/l
